Experimental data from US20100267561A1, “HERBICIDAL PYRIDAZINONE DERIVATIVES” (priority 2007, published 2010).

What was measured:
Test in all cases: Test E pre-/postemergence plant response
Assay type in all cases: in vivo
[1] = system: bermudagrass (Cynodon dactylon); conditions: scale 0 to 100
How it was run: (§1)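 Visual rating 0–100 vs untreated controls (0 = no effect, 100 = complete control) after 14–21 d greenhouse. Pre- and postemergence treatments; compound in non-phytotoxic solvent mix + surfactant. Post plants 2–18 cm, 1- to 4-leaf stage.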

[2] = system: pitted morningglory (Ipomoea lacunosa); conditions: scale 0 to 100
How it was run: as §1

[3] = system: purple nutsedge (Cyperus rotundus); conditions: scale 0 to 100
How it was run: as §1

[4] = system: itchgrass (Rottboellia cochinchinensis); conditions: scale 0 to 100
How it was run: as §1

[5] = system: barnyardgrass (Echinochloa crus-galli); conditions: scale 0 to 100
How it was run: as §1

[6] = system: guineagrass (Panicum maximum); conditions: scale 0 to 100
How it was run: as §1

[7] = system: green foxtail (Setaria viridis); conditions: scale 0 to 100
How it was run: as §1

[8] = system: surinam grass (Brachiaria decumbens); conditions: scale 0 to 100
How it was run: as §1

[9] = system: annual bluegrass (Poa annua); conditions: scale 0 to 100
How it was run: as §1

[10] = system: common mallow (Malva sylvestris); conditions: Postemergence, scale 0 to 100
How it was run: as §1

[11] = system: goosegrass (Eleusine indica); conditions: scale 0 to 100
How it was run: as §1

[12] = system: johnsongrass (Sorghum halepense); conditions: scale 0 to 100
How it was run: as §1

In the case of CCc1cc(-c2ccc(Cl)cc2)nn1-c1c(OS(C)(=O)=O)cnn(C)c1=O [Compound 39], the “Plant response rating, Bermudagrass” value ([1]; 8 g ai/ha, Preemergence) is reported as 20, the “Plant response rating, Bermudagrass” value ([1]; 16 g ai/ha, Preemergence) is reported as 75 and the “Plant response rating, Bermudagrass” value ([1]; 31 g ai/ha, Preemergence) is reported as 95. The “Plant response rating, Bermudagrass” value ([1]; 62 g ai/ha, Preemergence) was 100, the “Plant response rating, Bermudagrass” value ([1]; Postemergence, 8 g ai/ha) was 35 and the “Plant response rating, Bermudagrass” value ([1]; Postemergence, 16 g ai/ha) was 40. The “Plant response rating, Bermudagrass” value ([1]; Postemergence, 31 g ai/ha) was 50, the “Plant response rating, Bermudagrass” value ([1]; Postemergence, 62 g ai/ha) was 65 and the “Plant response rating, Morningglory” value ([2]; 16 g ai/ha, Preemergence) was 0. For the same compound, the “Plant response rating, Morningglory” value ([2]; 31 g ai/ha, Preemergence) was 0, the “Plant response rating, Morningglory” value ([2]; 62 g ai/ha, Preemergence) was 0 and the “Plant response rating, Morningglory” value ([2]; Postemergence, 8 g ai/ha) was 0. For the same compound, the “Plant response rating, Morningglory” value ([2]; Postemergence, 16 g ai/ha) was 0, the “Plant response rating, Morningglory” value ([2]; Postemergence, 31 g ai/ha) was 0 and the “Plant response rating, Morningglory” value ([2]; Postemergence, 62 g ai/ha) was 0. The “Plant response rating, Nutsedge, Purple” value ([3]; 16 g ai/ha, Preemergence) was 0, the “Plant response rating, Nutsedge, Purple” value ([3]; 31 g ai/ha, Preemergence) was 0 and the “Plant response rating, Nutsedge, Purple” value ([3]; Postemergence, 8 g ai/ha) was 0. The “Plant response rating, Nutsedge, Purple” value ([3]; Postemergence, 16 g ai/ha) was 0, the “Plant response rating, Nutsedge, Purple” value ([3]; Postemergence, 31 g ai/ha) was 0 and the “Plant response rating, Nutsedge, Purple” value ([3]; Postemergence, 62 g ai/ha) was 0. For the same compound, the “Plant response rating, Itchgrass” value ([4]; 16 g ai/ha, Preemergence) was 60, the “Plant response rating, Itchgrass” value ([4]; 31 g ai/ha, Preemergence) was 75 and the “Plant response rating, Itchgrass” value ([4]; 62 g ai/ha, Preemergence) was 80. The “Plant response rating, Itchgrass” value ([4]; Postemergence, 8 g ai/ha) was 20, the “Plant response rating, Itchgrass” value ([4]; Postemergence, 16 g ai/ha) was 25 and the “Plant response rating, Itchgrass” value ([4]; Postemergence, 31 g ai/ha) was 40. The “Plant response rating, Itchgrass” value ([4]; Postemergence, 62 g ai/ha) was 60, the “Plant response rating, Barnyardgrass” value ([5]; 8 g ai/ha, Preemergence) was 90 and the “Plant response rating, Barnyardgrass” value ([5]; 16 g ai/ha, Preemergence) was 90. The “Plant response rating, Barnyardgrass” value ([5]; 31 g ai/ha, Preemergence) was 100, the “Plant response rating, Barnyardgrass” value ([5]; 62 g ai/ha, Preemergence) was 100 and the “Plant response rating, Barnyardgrass” value ([5]; Postemergence, 8 g ai/ha) was 100. For the same compound, the “Plant response rating, Barnyardgrass” value ([5]; Postemergence, 16 g ai/ha) was 100, the “Plant response rating, Barnyardgrass” value ([5]; Postemergence, 31 g ai/ha) was 100 and the “Plant response rating, Barnyardgrass” value ([5]; Postemergence, 62 g ai/ha) was 100. The “Plant response rating, Guineagrass” value ([6]; 16 g ai/ha, Preemergence) was 100, the “Plant response rating, Guineagrass” value ([6]; 31 g ai/ha, Preemergence) was 100 and the “Plant response rating, Guineagrass” value ([6]; 62 g ai/ha, Preemergence) was 100. The “Plant response rating, Guineagrass” value ([6]; Postemergence, 8 g ai/ha) was 80, the “Plant response rating, Guineagrass” value ([6]; Postemergence, 16 g ai/ha) was 80 and the “Plant response rating, Guineagrass” value ([6]; Postemergence, 31 g ai/ha) was 90. For the same compound, the “Plant response rating, Guineagrass” value ([6]; Postemergence, 62 g ai/ha) was 95, the “Plant response rating, Foxtail, Green” value ([7]; 8 g ai/ha, Preemergence) was 75 and the “Plant response rating, Foxtail, Green” value ([7]; 16 g ai/ha, Preemergence) was 90. For the same compound, the “Plant response rating, Foxtail, Green” value ([7]; 31 g ai/ha, Preemergence) was 98, the “Plant response rating, Foxtail, Green” value ([7]; 62 g ai/ha, Preemergence) was 100 and the “Plant response rating, Foxtail, Green” value ([7]; Postemergence, 8 g ai/ha) was 60. For the same compound, the “Plant response rating, Foxtail, Green” value ([7]; Postemergence, 16 g ai/ha) was 70, the “Plant response rating, Foxtail, Green” value ([7]; Postemergence, 31 g ai/ha) was 75 and the “Plant response rating, Foxtail, Green” value ([7]; Postemergence, 62 g ai/ha) was 95. The “Plant response rating, Surinam Grass” value ([8]; 16 g ai/ha, Preemergence) was 100, the “Plant response rating, Surinam Grass” value ([8]; 31 g ai/ha, Preemergence) was 100 and the “Plant response rating, Surinam Grass” value ([8]; 62 g ai/ha, Preemergence) was 100. For the same compound, the “Plant response rating, Surinam Grass” value ([8]; Postemergence, 8 g ai/ha) was 95, the “Plant response rating, Surinam Grass” value ([8]; Postemergence, 16 g ai/ha) was 100 and the “Plant response rating, Surinam Grass” value ([8]; Postemergence, 31 g ai/ha) was 100. For the same compound, the “Plant response rating, Surinam Grass” value ([8]; Postemergence, 62 g ai/ha) was 100, the “Plant response rating, Bluegrass” value ([9]; 8 g ai/ha, Preemergence) was 0 and the “Plant response rating, Bluegrass” value ([9]; 16 g ai/ha, Preemergence) was 0. The “Plant response rating, Bluegrass” value ([9]; 31 g ai/ha, Preemergence) was 0, the “Plant response rating, Bluegrass” value ([9]; 62 g ai/ha, Preemergence) was 0 and the “Plant response rating, Bluegrass” value ([9]; Postemergence, 8 g ai/ha) was 0. The “Plant response rating, Bluegrass” value ([9]; Postemergence, 16 g ai/ha) was 0, the “Plant response rating, Bluegrass” value ([9]; Postemergence, 31 g ai/ha) was 0 and the “Plant response rating, Bluegrass” value ([9]; Postemergence, 62 g ai/ha) was 0. The “Plant response rating, Mallow” value ([10]; 8 g ai/ha) was 0, the “Plant response rating, Mallow” value ([10]; 16 g ai/ha) was 0 and the “Plant response rating, Mallow” value ([10]; 31 g ai/ha) was 0. For the same compound, the “Plant response rating, Mallow” value ([10]; 62 g ai/ha) was 0, the “Plant response rating, Goosegrass” value ([11]; 8 g ai/ha, Preemergence) was 75 and the “Plant response rating, Goosegrass” value ([11]; 16 g ai/ha, Preemergence) was 80. For the same compound, the “Plant response rating, Goosegrass” value ([11]; 31 g ai/ha, Preemergence) was 100, the “Plant response rating, Goosegrass” value ([11]; 62 g ai/ha, Preemergence) was 100 and the “Plant response rating, Goosegrass” value ([11]; Postemergence, 8 g ai/ha) was 35. For the same compound, the “Plant response rating, Goosegrass” value ([11]; Postemergence, 16 g ai/ha) was 70, the “Plant response rating, Goosegrass” value ([11]; Postemergence, 31 g ai/ha) was 80 and the “Plant response rating, Goosegrass” value ([11]; Postemergence, 62 g ai/ha) was 95. The “Plant response rating, Johnsongrass” value ([12]; 16 g ai/ha, Preemergence) was 75, the “Plant response rating, Johnsongrass” value ([12]; 31 g ai/ha, Preemergence) was 80 and the “Plant response rating, Johnsongrass” value ([12]; 62 g ai/ha, Preemergence) was 98. The “Plant response rating, Johnsongrass” value ([12]; Postemergence, 8 g ai/ha) was 35, the “Plant response rating, Johnsongrass” value ([12]; Postemergence, 16 g ai/ha) was 75 and the “Plant response rating, Johnsongrass” value ([12]; Postemergence, 31 g ai/ha) was 75. For the same compound, the “Plant response rating, Johnsongrass” value ([12]; Postemergence, 62 g ai/ha) was 95.
